{"source": "patent US20110010780A1", "about": "“KCNN3 AS DIAGNOSTIC AND THERAPEUTIC TARGET FOR NEURODEGENERATIVE DISEASES” (EVOTEC NeuroSciences GmbH, priority 2005, published 2011)", "key": {"[1]": {"system": "SK-channels", "conditions": "all SK-channels, rather unspecifically; cited from earlier work"}, "[2]": {"system": "CHO wild type cells (CHO/−)", "experiment": "cellular membrane potential assay in CHO wild type cells (control cell line)", "format": "cell-based", "method": "(§1) The minimum fluorescence values during the following 5 minutes measurement period were subtracted from the maximum signal recorded at the beginning of the experiment and plotted against the concentration of the substances.\nThe assay makes use of membrane potential sensitive, fluorescent dyes and the activation of the calcium-sensitive KCNN3-potassium channel by the addition of ionomycin. Upon entry of calcium into the cells KCNN3 is activated and thus impacts on the resting membrane potential of the cells which is mirrored by the fluorescent dye. In more detail: CHO cells expressing KCNN3 are cultured on black 384-well plates with clear bottom at a density of 1.5.104 for 24 hours in a humidified incubator at 37° C. The cell culture medium is replaced with assay buffer (1 mM KCl, 2.3 mM CaCl2, 5 mM NaHCO3, 1 mM MgCl2, 154 mM NaCl, 5.5 mM d(+)-glucose, 5 mM HEPES, pH 7.4) containing 5 μM DiBAC4(3). After 30 min of cell loading with the dye at 37° C. fluorescence (excitation 488 nm, emission 538 nm) is read by using a fluorescence plate reader (Flex-station, Molecular Devices). Activation of KCNN3 is achieved by the addition of ionomycin at a 1μM final concentration (FIGS. 14 and 15). […] Fluorescence is monitored for a period of 5 min."}, "[3]": {"target": "T1, KCNN3 (Homo sapiens, UniProt Q9UGI6, DUP76-80)", "T1 construct": "expressed in transfected cells", "experiment": "cellular KCNN3 screening assay (membrane potential dye DiBAC4(3), ionomycin activation) in CHO/KCNN3 cells", "format": "cell-based", "conditions": "incubated 30 minutes before ionomycin (1 μM final), fluorescence over 5 minutes", "method": "Upon entry of calcium into the cells the potassium channel is activated and thus impacts on the resting membrane potential of the cells which is mirrored by the fluorescent dye. The minimum fluorescence values measured during the following 5 minutes period were subtracted from the maximum signal recorded at the beginning of the experiment and plotted against the concentration of the substances incubated with the cells. The values obtained in the absence and at the lowest concentrations are indicative of a fully active potassium channel which leads to a hyperpolarization of the membrane potential.\nas §1\nThe assay makes use of membrane potential sensitive, fluorescent dyes and the activation of the calcium-sensitive KCNN3-potassium channel by the addition of ionomycin. Upon entry of calcium into the cells KCNN3 is activated and thus impacts on the resting membrane potential of the cells which is mirrored by the fluorescent dye. […] After 30 min of cell loading with the dye at 37° C. fluorescence (excitation 488 nm, emission 538 nm) is read by using a fluorescence plate reader (Flex-station, Molecular Devices). […] Fluorescence is monitored for a period of 5 min."}, "[4]": {"target": "T1, KCNN3", "experiment": "Z′-value assessment of the cellular KCNN3 screening assay with fluoxetine", "format": "cell-based", "conditions": "CHO-KCNN3 cells, 100 μM fluoxetine, ionomycin 500 nM", "protocol": "The difference of the fluorescence intensity before addition of ionomycin and after the 120 seconds incubation period was determined where the cells were incubated with fluoxetine. The influx of calcium mediated by ionomycin leads to an opening of the channels and a subsequent hyperpolarization of the resting membrane potential of the cells. […] The mean value of the difference of the fluorescence in presence of ionomycin and fluoxetine in the above experiment is 15912 rfu (standard deviation 3636 rfu) and the mean value of the fluorescence of cells in presence of ionomycin only is 124086 rfu (standard deviation 12615 rfu). The Z′-value is calculated to be 0.55. The Z′ in a second series of experiments was determined to be 0.59.\nIn order to optimize the KCNN3 assay for screening purposes the Z′-value was assessed (FIG. 16). After 24 hours of incubation the medium was removed from a 384-well plate where CHO-KCNN3 cells were grown. 20 μl dye solution in assay buffer was pipetted onto the cells and afterwards another 20 μl assay buffer only or 20 μl assay buffer plus 100 μM fluoxetine was added. After 30 minutes of incubation at 37 ° C. the plate was transferred to the automated pipetting device/fluorescence reader (FlexStation, Molecular Devices) and 10 μl ionomycin was added at a final concentration of 500 nM. Fluorescence was then measured for 120 sec every 10 sec. […]"}}}
{"smiles": "c1cc2cc(c1)C[n+]1ccc(c3ccccc31)NCc1ccc(cc1)CNc1cc[n+](c3ccccc13)C2", "note": "[UCL-1684]", "values": [{"measurement": "block of SK-channels, potency", "setting": "[1]", "result": "lesser potency compared to the toxins"}]}
{"smiles": "COc1cc2c3cc1Oc1cc(ccc1O)C[C@@H]1c4c(cc(OC)c(O)c4Oc4ccc(cc4)C[C@@H]3N(C)CC2)CC[N+]1(C)C", "note": "[tubocurarine]", "values": [{"measurement": "block of SK-channels, potency", "setting": "[1]", "result": "lesser potency compared to the toxins"}]}
{"smiles": "C[C@H](CCC(=O)O)C[C@H](C)C[C@H](C)C(=O)/C=C(\\O)[C@H](C)C[C@H](C)C/C=C/[C@@H](C)[C@@H](O)[C@@H](C)[C@@H](O)C[C@@H]1CC[C@@](C)([C@H]2CC[C@@](C)([C@@H](C)O)O2)O1", "note": "[ionomycin]", "values": [{"measurement": "effect on fluorescence (membrane potential) in CHO wild type cells", "setting": "[2]", "result": "no effect"}]}
{"smiles": "CC[N+](CC)(CC)CCOc1cccc(OCC[N+](CC)(CC)CC)c1OCC[N+](CC)(CC)CC", "note": "[gallamine]", "values": [{"measurement": "block of SK-channels, potency", "setting": "[1]", "result": "lesser potency compared to the toxins"}]}
{"smiles": "CN1CCN(CCCN2c3ccccc3Sc3ccc(C(F)(F)F)cc32)CC1", "note": "[trifluorperatine]", "values": [{"measurement": "IC50", "setting": "[3]", "result": 18, "unit": "µM"}]}
{"smiles": "CNCCC(Oc1ccc(C(F)(F)F)cc1)c1ccccc1", "note": "(stereo not shown) [fluoxetine]", "values": [{"measurement": "mean value of the difference of the fluorescence before addition of ionomycin and after 120 seconds", "setting": "[4]; 30 minutes, standard deviation 3636 rfu", "result": 15912, "unit": "rfu"}, {"measurement": "block of the KCNN3 ion channel", "setting": "[4]", "result": "the ion channel is blocked"}]}
